The text below walks through data of ChEMBL document CHEMBL4831503, “Design, synthesis, in vitro and in vivo anti-respiratory syncytial virus (RSV) activity of novel oxizine fused benzimidazole derivatives” (Eur J Med Chem, 2021).

The test system of data set [1] is Respiratory syncytial virus. The data set can be described thus: Antiviral activity against Respiratory syncytial virus infected in human HEp-2 cells incubated for 60 hrs by MTT assay. Type of data set: functional, organism-based. To be noted: HEp-2, 60 h.
Data set [2] can be described thus: Cytotoxicity against human HEp-2 cells assessed as reduction in cell viability measured after 60 hrs by MTT assay. Type of data set: cell-based.
Data set [3] can be described thus: Selectivity index, ratio of CC50 for human HEp-2 cells to EC50 for Respiratory syncytial virus infected in human HEp-2 cells. It counts as toxicity, cell-based. Particulars: read-out: Selectivity Index.
For data set [4], the system named is Respiratory syncytial virus. Nature of the data set: Antiviral activity against RSV infected in BALB/c mouse assessed as downregulation of IL-10 expression in lung tissue infected with RSV at 50 mg/kg/day measured after 2 to 6 days post infection by RT-PCR analysis. It counts as functional, organism-based. To be noted: time 2-6 day.
Data set [5] has as its system Respiratory syncytial virus. The data set can be described thus: Antiviral activity against RSV infected in human HEp-2 cells assessed as downregulation of RIG-1 expression at 25 uM treated 48 hpi and measured after 48 hrs by Western blot analysis. It counts as functional, organism-based.
The subject of data set [6] is Respiratory syncytial virus. The data set can be described thus: Inhibition of RSV induced apoptosis in human HEp-2 cells assessed as early apoptotic cells at 25 uM measured after 60 hrs by Annexin V-FITC/PI staining based flow cytometry analysis (reference value: 10.3%). Set-up: scale not given: the % may be the effect or the level left. It counts as functional.
Data set [7] relates to Respiratory syncytial virus. The data set can be described thus: Inhibition of RSV induced apoptosis in human HEp-2 cells assessed as reduction in cleaved caspase-3 expression measured after 60 hrs by Western blot analysis. It counts as functional, organism-based.
Data set [8] deals with Respiratory syncytial virus. Nature of the data set: Antiviral activity against RSV infected in BALB/c mouse assessed as downregulation of iNOS expression in lung tissue infected with RSV at 50 mg/kg/day measured after 2 to 6 days post infection by RT-PCR analysis. To be noted: time 2-6 day. It counts as functional, organism-based.
The test system of data set [9] is Respiratory syncytial virus. Nature of the data set: Antiviral activity against RSV infected in BALB/c mouse assessed as downregulation of IL-8 expression in lung tissue infected with RSV at 50 mg/kg/day measured after 2 to 6 days post infection by RT-PCR analysis. Type of data set: functional, organism-based. To be noted: time 2-6 day.
Data set [10] deals with Respiratory syncytial virus. The data set can be described thus: Inhibition of RSV induced apoptosis in human HEp-2 cells assessed as reduction in cleaved caspase-7 expression measured after 48 hrs by Western blot analysis. Type of data set: functional, organism-based.
In data set [11] the test system is Respiratory syncytial virus. The data set can be described thus: Antiviral activity against RSV Long infected in BALB/c mouse assessed as inhibition of alveolar infiltrates accumulation at 50 mg/kg/day observed on day 6 after infection by H and E staining based microscopic analysis. Type of data set: functional, organism-based. Particulars: time 6.0 day.
Data set [12] has as its system Respiratory syncytial virus. The data set can be described thus: Inhibition of RSV induced apoptosis in human HEp-2 cells assessed as reduction in cleaved caspase-9 expression measured after 48 hrs by Western blot analysis. It counts as functional, organism-based.
For data set [13], the system named is Respiratory syncytial virus. The data set can be described thus: Antiviral activity against RSV Long infected in BALB/c mouse assessed as reduction in lung tissue damage by measuring lung index at 50 mg/kg/day measured after 4 to 6 days of virus infection. Type of data set: functional, organism-based. Particulars: time 4-6 day.
Data set [14] relates to Respiratory syncytial virus. Nature of the data set: Antiviral activity against RSV infected in human HEp-2 cells assessed as downregulation of NF-kappaB expression at 25 uM treated 48 hpi and measured after 48 hrs by Western blot analysis. It counts as functional, organism-based.
The test system of data set [15] is Respiratory syncytial virus. Nature of the data set: Antiviral activity against RSV infected in BALB/c mouse assessed as downregulation of TLR3 expression in lung tissue infected with RSV at 50 mg/kg/day measured after 2 to 6 days post infection by RT-PCR analysis. To be noted: time 2-6 day. Type of data set: functional, organism-based.
In data set [16] the test system is Respiratory syncytial virus. Nature of the data set: Antiviral activity against RSV infected in BALB/c mouse assessed as downregulation of TNF-alpha expression in lung tissue infected with RSV at 50 mg/kg/day measured after 2 to 6 days post infection by RT-PCR analysis. It counts as functional, organism-based. To be noted: time 2-6 day.
Data set [17] has as its system Respiratory syncytial virus. The data set can be described thus: Antiviral activity against RSV infected in BALB/c mouse assessed as downregulation of IL-6 expression in lung tissue infected with RSV at 50 mg/kg/day measured after 2 days post infection by RT-PCR analysis. It counts as functional, organism-based. To be noted: time 2.0 day.
In data set [18] the test system is Respiratory syncytial virus. Nature of the data set: Inhibition of RSV induced apoptosis in human HEp-2 cells assessed as reduction in PARP cleavage measured after 48 hrs by Western blot analysis. Type of data set: functional, organism-based.
Data set [19] relates to Respiratory syncytial virus. Nature of the data set: Antiviral activity against RSV Long infected in BALB/c mouse assessed as improvement in lung congestion at 25 to 100 mg/kg/day observed on day 6 after infection by H and E staining based microscopic analysis. It counts as functional, organism-based. To be noted: dose 25-100 mg/kg/day, time 6.0 day.
Data set [20] relates to Respiratory syncytial virus. The data set can be described thus: Antiviral activity against RSV infected in BALB/c mouse assessed as downregulation of RIG-1 expression in lung tissue infected with RSV at 50 mg/kg/day measured after 2 days post infection by RT-PCR analysis. Type of data set: functional, organism-based. Particulars: time 2.0 day.
A short description of data set [21]: Toxicity in BALB/c mouse infected with RSV-Long assessed as body weight loss at 50 mg/kg/day administered via gastric gavage once daily for 6 days. It counts as organism-based. Particulars: in vivo, po, 144 h, time 6 day.
The test system of data set [22] is Respiratory syncytial virus. Nature of the data set: Antiviral activity against RSV infected in BALB/c mouse assessed as downregulation of IRF3 expression in lung tissue infected with RSV at 50 mg/kg/day measured after 2 to 4 days post infection by RT-PCR analysis. It counts as functional, organism-based. To be noted: time 2-4 day.
Data set [23] in a line: Inhibition of RSV induced ROS production in human HEp-2 cells assessed as reduction in accumulation of ROS-positive cells at 25 uM measured after 36 hrs by DCHF-DA staining based flow cytometry analysis (reference value: 82.2%). It counts as functional, Respiratory syncytial virus. Also on record: scale not given: the % may be the effect or the level left.
Data set [24] concerns Respiratory syncytial virus. Nature of the data set: Inhibition of RSV induced apoptosis in human HEp-2 cells assessed as late apoptotic cells at 25 uM measured after 60 hrs by Annexin V-FITC/PI staining based flow cytometry analysis (reference value: 20.2%). Set-up: scale not given: the % may be the effect or the level left. It counts as functional.
Data set [25] deals with Respiratory syncytial virus. Nature of the data set: Antiviral activity against RSV infected in BALB/c mouse assessed as inhibition of viral replication by measuring RSV-M gene expression in lung after 2 to 6 days post infection by RT-PCR analysis. It counts as functional, organism-based. Particulars: time 2-6 day.

pEC50: −log10 of the molar value. Active and inactive are the calls of the source. The calls are words filed in the database; no cut-off is given here. Some results are limits rather than exact numbers.

For the molecule `COc1ccc2c(nc3n2[C@H]2OC[C@@H](O)[C@H]2OC3)c1N`, the pEC50 in data set [1] was 4.95. In addition, the half-maximal cytotoxic concentration (CC50) at 60 h in data set [2] was found to be 109 µM. For the same molecule, the selectivity ratio in data set [3] stood at 9.66.
As for `Cc1cc2nc3n(c2cc1C)[C@H]1OC[C@@H](O)[C@H]1OC3`, the CC50 at 60 h in data set [2] amounted to 492 µM.
Still for that read-out and setting: the same measure for `O[C@@H]1CO[C@H]2[C@@H]1OCc1nc3ccccc3n12`: 564 µM; for `Cc1c(Br)cc2c(nc3n2[C@H]2OC[C@@H](OCc4ccccc4)[C@H]2OC3)c1Br`: 25.6 µM; for `COc1ccc2c(c1)nc1n2[C@H]2OC[C@@H](O)[C@H]2OC1`: more than 800 µM.
Consider `O[C@@H]1CO[C@H]2[C@@H]1OCc1nc3cc(Br)cc(Cl)c3n12`, for which the pEC50 in [1] is 4.06. Moreover, the CC50 at 60 h in [2] is more than 800 µM.
Take `COc1c(Cl)cc2c(nc3n2[C@H]2OC[C@@H](O)[C@H]2OC3)c1Cl`: the CC50 at 60 h in data set [2] is 411 µM.
`Cc1c(Br)cc2c(nc3n2[C@H]2OC[C@H](N=[N+]=[N-])[C@H]2OC3)c1Br` had a negative-log EC50 (pEC50) in [1] of 4.88. The CC50 at 60 h in data set [2] was determined as 33.1 µM. The selectivity ratio in data set [3] was determined as 2.54.
Regarding `Cc1c(Br)cc2nc3n(c2c1Br)[C@H]1OC[C@H](N=[N+]=[N-])[C@H]1OC3`, in [2], the CC50 at 60 h is 21.4 µM.
The same measure, in the same setting: the same measure for `[N-]=[N+]=N[C@H]1CO[C@H]2[C@@H]1OCc1nc3cc(Br)c(Br)cc3n12`: 77.4 µM; for `Cc1cc2nc3n(c2cc1C)C[C@@H]([C@H](O)CO)OC3`: 574 µM.
Regarding `CS(=O)(=O)O[C@@H]1CO[C@H]2[C@@H]1OCc1nc3cc(Br)c(Br)cc3n12`, in [1], the negative logarithm of the EC50 (pEC50) was 4.06. Moreover, the CC50 at 60 h in [2] is 99.5 µM. Besides, in [3], the selectivity ratio is 1.13.
Molecule `Cc1ccc(S(=O)(=O)O[C@@H]2CO[C@H]3[C@@H]2OCc2nc4c(Br)c(C)c(Br)cc4n23)cc1` gave a negative-log EC50 (pEC50) in data set [1] of 5.80. Besides, the CC50 at 60 h in data set [2] came to 8.94 µM. The selectivity ratio in data set [3] is 5.68.
Consider `COc1c(Br)cc2c(nc3n2[C@H]2OC[C@@H](O)[C@H]2OC3)c1Br`, for which the CC50 at 60 h in [2] was 259 µM.
`Cc1c(Br)cc2nc3n(c2c1Br)[C@H]1OC[C@@H](OCc2ccccc2)[C@H]1OC3` showed a pEC50 in data set [1] of 4.35. Further, the CC50 at 60 h in data set [2] is 115 µM. For the same molecule, the selectivity ratio in [3] was found to be 2.59. In addition, in data set [4], the outcome was Active.
`Cc1ccc(S(=O)(=O)O[C@@H]2CO[C@H]3[C@@H]2OCc2nc4cc(Br)c(Br)cc4n23)cc1` gave a pEC50 in data set [1] of 4.19. Further, the CC50 at 60 h in data set [2] is 87.5 µM. Further, the selectivity ratio in data set [3] turned out to be 1.35.
In turn, `O[C@@H]1CO[C@H]2[C@@H]1OCc1nc3cc(F)c(F)cc3n12` showed a pEC50 in data set [1] of less than 3.40. Besides, the CC50 at 60 h in data set [2] was 512 µM.
Consider `OC[C@@H](O)[C@@H]1Cn2c(nc3ccccc32)CO1`, for which the cytotoxic concentration (CC50) at 60 h in data set [2] was more than 800 µM.
Still for that read-out and setting: the same measure for `Cc1c(Br)cc2c(nc3n2[C@H]2OC[C@@H](O)[C@H]2OC3)c1Br`: 34.3 µM.
Turning to `NC(=O)c1ncn([C@@H]2O[C@H](CO)[C@@H](O)[C@H]2O)n1` [RIBAVIRIN], the outcome in data set [5], in [8], in data set [9], in data set [11], in data set [13] and in data set [14] was Active. Also, the outcome in data set [15], in data set [16], in data set [17], in data set [19], in data set [4] and in data set [22] was Active. Further, the result in data set [25] was Active. Also, the Activity is recorded as 0.3% in data set [6], “Toxic” in data set [21], 62.7% in data set [23] and 7.6% in [24]. The inhibition entry in [7], in [10], in [12] and in data set [18] was “Active” throughout. This molecule also had a pEC50 in data set [1] of 4.73. For the same molecule, the CC50 at 60 h in data set [2] worked out at 418 µM. The selectivity ratio in [3] was determined as 22.6. Moreover, the outcome in data set [20] was inactive.
The molecule `Cc1ccc(S(=O)(=O)O[C@@H]2CO[C@H]3[C@@H]2OCc2nc4cc(Br)c(C)c(Br)c4n23)cc1` showed a pEC50 in data set [1] of 5.08. Besides, the CC50 at 60 h in data set [2] amounted to 88.6 µM. The selectivity ratio in [3] amounted to 10.7.
The corresponding values for `OC[C@@H](O)[C@@H]1Cn2c(nc3cc(F)c(F)cc32)CO1` are 4.19, 653 µM and 10.
As for `O[C@@H]1CO[C@H]2[C@@H]1OCc1nc3cc(Cl)c(Cl)cc3n12`, the CC50 at 60 h in data set [2] worked out at 238 µM.
`Cc1c(Br)cc2nc3n(c2c1Br)[C@H]1OC[C@@H](OS(C)(=O)=O)[C@H]1OC3` gave a pEC50 in data set [1] of 5.22. Also, the CC50 at 60 h in data set [2] turned out to be 23.7 µM. In addition, in data set [3], the selectivity ratio came out at 3.96.
As for `O[C@@H]1CO[C@H]2[C@@H]1OCc1nc3cc(Br)c(Br)cc3n12`, in [1], the pEC50 was 4.50. Moreover, in data set [2], the CC50 at 60 h is 181 µM. Besides, the selectivity ratio in [3] came to 5.67.
Turning to `COc1ccc2c(nc3n2[C@H]2OC[C@@H](O)[C@H]2OC3)c1[N+](=O)[O-]`, in [2], the CC50 at 60 h was determined as 468 µM.
The same measure, in the same setting: the same measure for `Cc1c(Br)cc2c(nc3n2[C@H]2OC[C@@H](OS(C)(=O)=O)[C@H]2OC3)c1Br`: 15.6 µM.
The same measure, in the same setting: for `COc1ccc2c(c1)nc1n2C[C@@H]([C@H](O)CO)OC1` the value was 366 µM.
